The record followed here is patent US9676820B2, “Method for inhibiting proliferation of high LIX1L-expressing tumor cell, and tumor cell proliferation-inhibiting peptide” (National University Corporation Hamamatsu University School …, priority 2013, dated 2017).

One data set concerns MKN45 cell strains. The experiment in a line: Cancer mouse model transplanted with MKN45 cell strain. In kind it is in vivo. To be noted: nude mice with MKN45 transplant; 100 μL of 30 μM peptide solution 4 times; vs spare mice given nothing. The protocol: Rearing of 10 nude male mice (BALB/cAJcl-nu/nu, purchased from CLEA Japan, Inc.) at the age of 7 weeks was started, and MKN45 cell strains separately cultured were transplanted into the mice by being subcutaneously injected thereinto on day 31. The day on which the transplantation was performed was set as day 0, the mice were divided into two groups (peptide 1-administered group and control peptide-administered group) of 5 mice on day 14 of the transplantation, 4 mice were selected among the 5 mice from each group, and the peptide 1 or the control peptide was administered. The remaining one mouse was set as a spare. In the peptide 1-administered group, 100 μL of a 30 μM peptide 1 solution (solution prepared by adding a methylcellulose solution to the solution after the peptide 1 was dissolved in PBS (−)) was subcutaneously injected into a tumor site (site into which the MKN45 cell strain was injected) 4 times every 3 days. In the control peptide-administered group, 100 μL of a 30 μM control peptide solution (solution prepared by adding a methylcellulose solution to the solution after the control peptide was dissolved in PBS (−)) was subcutaneously injected into a tumor site 4 times on the same days as those in the peptide 1-administered group.
The results in which the points of time (days) at which a peptide solution was administered to each mouse and the volume (mm^3) of a tumor site were temporally measured are shown in FIG. 21. For the volume of the tumor site, the width and the length of the tumor site determined from the appearance of the mouse were measured and calculated using the following formula. [Volume(mm^3) of Tumor Site]=([Width(mm) of Tumor Site]^2×[Length(mm) of Tumor Site])/2
The “width of tumor site” referred herein means a maximum width of a portion in which the skin has risen due to the tumor and the “length of tumor site” means a maximum length of a portion in which the skin has risen due to the tumor.

The next data set has as its system NUGC-4 strain. Put plainly: MTT assay, NUGC-4 strain. Type of data set: cell-based. As to conditions: 72 hours, peptide concentrations up to 250 μM. The protocol: (§1) Specifically, first, cells plated in a 96-well microplate such that the density thereof became 5×10^3 cells/well were cultured for one night in a culture solution having the same composition as those in the reference examples. […] After the culturing, an MTT-containing PBS solution was added to the culture solution, and the mixture was incubated for 4 hours. Then, formazan which was generated by putting 100 μL of isopropanol (containing 34 (v/v) % of hydrochloric acid) into each of the wells was dissolved. The absorbance of each of the wells of the microplate at 570 nm was measured using a microplate reader. As controls, culturing was performed in the same manner except that no peptide was added to the strains, an MTT assay was performed thereon, and the absorbance at 570 nm was measured (untreated).
(§2) In the method for measuring the viable cell counts, cells were cultured for 3 days similarly to Example 1 except that a 25 μM (10 μM for an HL-60 strain, a K562 strain, and a U937 strain) culture solution containing a control peptide or a peptide 1 was used, and the viable cell counts were measured. As a comparison, culturing was performed similarly to the above using a culture solution containing no peptide, and the viable cell counts were measured (untreated).
(§3) In addition, in the method for performing an MTT assay, cells were cultured for 72 hours similarly to Example 2 except that a peptide to be added to a strain was set to a control peptide or a peptide 1 at 25 μM (10 μM for an HL-60 strain, a K562 strain, and a U937 strain), an MTT assay was performed thereon, and the absorbance at 570 nm was measured. As a comparison, culturing was performed similarly to the above using a culture solution containing no peptide, and the MTT assay was performed thereon (untreated).
(§4) Specifically, the cells were cultured for 72 hours similarly to Example 2 except that a peptide to be added to a cell was set to a peptide 1, 2, 5, or 6, MTT assays were performed thereon, and the absorbance at 570 nm was measured. As a comparison, culturing was performed similarly to the above using a culture solution containing no peptide, and the MTT assay was performed thereon (untreated).
(§5) Specifically, the cells were cultured for 72 hours similarly to Example 2 except that peptides to be added to cell strains were set to peptides 7 to 14, MTT assays were performed thereon, and the absorbance at 570 nm was measured. […]
(§6) Specifically, the cells were cultured for 72 hours similarly to Example 2 except that a peptide to be added to a cell strain was set to a peptide 15 or 16, an MTT assay was performed thereon, and the absorbance at 570 nm was measured. […]
For orientation: Tetrazolium assays rely on reduction of a dye to a coloured formazan, in cell work by metabolically active cells.

A further data set deals with 293 FLG. Put plainly: MTT assay, 293 FLG cells. In kind it is cell-based. As to conditions: 72 hours, peptide concentrations up to 250 μM. As to the method: as §1, §2, §3, §4, §5, §6
Another data set deals with MKN45 strain. Put plainly: MTT assay, MKN45 strain. To be noted: 72 hours, peptide concentrations up to 250 μM. In kind it is cell-based. As to the method:
as §1, §2, §3, §4, §5, §6

For the next data set, the system named is 293 FLG/LIX1L. The experiment in a line: MTT assay, 293 FLG/LIX1L cells. In kind it is cell-based. To be noted: 72 hours, peptide concentrations up to 250 μM. The protocol:
as §1, §2, §3, §4, §5, §6

The test system of the next data set is K562 strain. The experiment in a line: MTT assay, K562 strain. Type of data set: cell-based. As to conditions: 72 hours; for absorbance at 570 nm (MTT assay), influence on cell proliferation: peptide 0 μM to 100 μM. As to the method:
(§7) Specifically, first, cells plated in a 96-well microplate such that the density thereof became 5×10^3 cells/well were cultured for one night in a culture solution having the same composition as those in the reference examples. Thereafter, the culture solution was exchanged with 100 μL of a culture solution of which the concentration of peptides is 0 μM to 100 μM for culturing for 72 hours. After the culturing, an MTT-containing PBS solution was added to the culture solution, and the mixture was incubated for 4 hours. Then, formazan which was generated by putting 100 μL of isopropanol (containing 34 (v/v) % of hydrochloric acid) into each of the wells was dissolved. The absorbance of each of the wells of the microplate at 570 nm was measured using a microplate reader. As controls, culturing was performed in the same manner except that no peptide was added to the strains, an MTT assay was performed thereon, and the absorbance at 570 nm was measured (untreated).
(§8) Specifically, the cells were cultured for 72 hours similarly to Example 2 except that a peptide to be added to a cell strain was set to peptide 1, 3, or 4, or a control peptide, an MTT assay was performed thereon, and the absorbance at 570 nm was measured.
as §2, §3, §4
Specifically, the cells were cultured for 72 hours similarly to Example 2 except that peptides to be added to cell strains were set to peptides 7 to 14, MTT assays were performed thereon, and the absorbance at 570 nm was measured. As a comparison, culturing was performed similarly to the above using a culture solution containing no peptide, and the MTT assay was performed thereon (untreated).
Specifically, the cells were cultured for 72 hours similarly to Example 2 except that a peptide to be added to a cell strain was set to a peptide 15 or 16, an MTT assay was performed thereon, and the absorbance at 570 nm was measured. As a comparison, culturing was performed similarly to the above using a culture solution containing no peptide, and the MTT assay was performed thereon (untreated).

In a further data set the test system is RPMI8226 strain. Put plainly: MTT assay, RPMI8226 strain. In kind it is cell-based. To be noted: peptide 0 μM to 100 μM, 72 hours. The protocol:
as §7, §8

The test system of a further data set is U937 strain. Put plainly: MTT assay, U937 strain. In kind it is cell-based. To be noted: peptide 0 μM to 100 μM, 72 hours. As to the method: as §7, §8, §2, §3

As for `N=C(N)NCCC[C@H](NC(=O)CNC(=O)[C@@H](N)Cc1ccc(O)cc1)C(=O)N[C@@H](CCCCN)C(=O)N[C@@H](CCCCN)C(=O)N[C@@H](CCCNC(=N)N)C(=O)N[C@@H](CCCNC(=N)N)C(=O)N[C@@H](CCC(N)=O)C(=O)N[C@@H](CCCNC(=N)N)C(=O)N[C@@H](CCCNC(=N)N)C(=O)N[C@@H](CCCNC(=N)N)C(=O)NCCCCCC(N)=O` [control peptide, reference compound], in the data set with MKN45 cell strains, the body weight result is on record as “no particularly significant change”.
In the case of “YGRKKRRQRRR-X-HTQGYGRVNV-NH2 (YGRKKRRQRRRXHTQGYGRVNV; ε-aminocaproic acid linker; C-terminal amide; peptide 6)”, the “cell proliferation (MTT assay, absorbance at 570 nm)” value with NUGC-4 strain, in the data set on 293 FLG, in the data set with MKN45 strain, in the data set with 293 FLG/LIX1L and in the data set with K562 strain (peptide concentrations up to 250 μM) was “not inhibited” in each case.
Turning to “peptide 3: peptide in which the Y136-containing partial sequence consists of 20 amino acids (YGRKKRRQRRRXEMVPSNSPPYVCYVTLPGGS; peptide 3)”, the “absorbance at 570 nm (MTT assay), influence on cell proliferation” value in the data set on RPMI8226 strain is listed as “not inhibited”; in the data set on K562 strain, “inhibited”. In addition, the “absorbance at 570 nm (MTT assay), cell proliferation” value with U937 strain was “inhibited”.
As for “peptide 4: peptide in which the Y136-containing partial sequence consists of 30 amino acids (YGRKKRRQRRRXALVVYEMVPSNSPPYVCYVTLPGGSCFGSF; peptide 4)”, the results for the “absorbance at 570 nm (MTT assay), influence on cell proliferation” value in the data set on RPMI8226 strain and in the data set on K562 strain were “not inhibited” and “inhibited”, respectively. Besides, the “absorbance at 570 nm (MTT assay), cell proliferation” value with U937 strain is recorded as “inhibited”.
